In brackets after ≈: the same amount, converted by molar mass. Where a name gives a salt, the structure may show the parent alone.
Legend:
[1] = order in stability among crystal forms by solvent-mediated transformation of a mixture of crystals; assay type: physicochemical; settings: order may change depending on the solvent and temperature
Text: The order in stability among the crystal forms of each acid salt can be examined by solvent-mediated transformation of a mixture of crystals, but the order may change depending on the solvent and temperature. […]. […] […].

[2] = solubility according to the General Rules of the Japanese Pharmacopoeia 14th Edition; assay type: physicochemical; settings: for solubility in Solution 1: Solution 1 of the Japanese Pharmacopoeia; for solubility in Solution 1 / solubility in Solution 2: 20±5° C. within 30 minutes; for solubility in Solution 2: Solution 2 of the Japanese Pharmacopoeia; for solubility in Water: powder shaken 30 seconds every 5 minutes at 20±5° C. within 30 minutes
Experimental: […]. In accordance with the General Rules of the Japanese Pharmacopoeia 14th Edition, solubility (μg/mL) herein refers to an amount of a substance dissolved in a solvent after the substance in powder is placed in the solvent and the sample is shaken strongly for 30 seconds every 5 minutes at 20±5° C. within 30 minutes.

Row | SMILES | relative stability of crystal form ([1]; sulfate) | solubility in Solution 1 ([2]; sulfate) [µg/mL] | solubility in Solution 2 ([2]; sulfate) [µg/mL] | solubility in Water ([2]; sulfate) [µg/mL] | other results
1 | Cc1cccc2scc(Cn3c(SCCCC(=O)O)nc4ccccc43)c12 [Crystal-SC, 4-(1-((4-methylbenzothiophen-3-yl)methyl)benzimidazol-2-ylthio)butanoic acid sulfate] | more stable than the other four crystal forms | 10.6 | 72.4 | 0.1 | –
2 | Cc1cccc2scc(Cn3c(SCCCC(=O)O)nc4ccccc43)c12 [Crystal-SB, 4-(1-((4-methylbenzothiophen-3-yl)methyl)benzimidazol-2-ylthio)butanoic acid sulfate] | – | 19.8 | 24.2 | 0.8 | –
3 | Cc1cccc2scc(Cn3c(SCCCC(=O)O)nc4ccccc43)c12 [Crystal A, 4-(1-((4-methylbenzothiophen-3-yl)methyl)benzimidazol-2-ylthio)butanoic acid, reference compound] | – | – | – | – | solubility in Solution 1 [2]: 2.5 µg/mL (≈ 6.3 µM); solubility in Solution 2 [2]: 1.9 µg/mL (≈ 4.79 µM)
4 | Cc1cccc2scc(Cn3c(SCCCC(=O)O)nc4ccccc43)c12 [Crystal-SA, 4-(1-((4-methylbenzothiophen-3-yl)methyl)benzimidazol-2-ylthio)butanoic acid sulfate] | – | 8.6 | 67.3 | – | –
5 | Cc1cccc2scc(Cn3c(SCCCC(=O)O)nc4ccccc43)c12.Cl [Crystal-HB, 4-(1-((4-methylbenzothiophen-3-yl)methyl)benzimidazol-2-ylthio)butanoic acid hydrochloride] | – | – | – | – | relative stability of crystal form [1]: more stable than the other crystal forms
6 | Cc1cccc2scc(Cn3c(SCCCC(=O)O)nc4ccccc43)c12 [Crystal-SG, 4-(1-((4-methylbenzothiophen-3-yl)methyl)benzimidazol-2-ylthio)butanoic acid sulfate] | less stable than crystal-SF | – | – | – | –
7 | Cc1cccc2scc(Cn3c(SCCCC(=O)O)nc4ccccc43)c12 [Crystal-SF, 4-(1-((4-methylbenzothiophen-3-yl)methyl)benzimidazol-2-ylthio)butanoic acid sulfate] | close to that of crystal-SA | 7.6 | 74.0 | 0.1 | –

Source: US20080015240A1, “Acid Salt of Benzimidazole Derivative and Crystal Thereof” (priority 2004, published 2008)
